How the values were obtained:
[1] = tested on: Red Blood Cells (RBCs) from treated animals; assay: Single dose study in sickle Townes mice: RBC sickling under hypoxia; format: in vivo, mouse; details: 0.5 h, SCD mice, n=3
Description: (§1) In Vivo Studies Mouse Model
(§2) The effect of the compounds of the invention was evaluated in-male sickle Townes mice in a single dose study. Compounds of the invention were administered in amounts set out in Tables 7, 8 and 9 that follow by oral gavage. Control mice received vehicle. Blood (50 μL) was drawn at 0.5 h, 1 h, 4 h, 7 h, 10 h, and 24 h. To measure exposure in whole blood, 20 μL sample was used. Blood drawn at 0.5 h was also evaluated for cell sickling.
Red Blood Cells (RBCs) from treated animals were diluted to ˜10^7 cells/mL with 300 μL Hemeox solution in a 24-well plate and incubated in a hypoxia chamber, 5% CO2 and 3% O2 for 4 h. Cells were then fixed at room temperature for 30 minutes in sickling fixative solution and stained with TER119 alexa 488 conjugated antibody (BioLegend) for 30 minutes at room temperature, washed and plated at 50,000 cells/well with 200 μL of hemox buffer (TCS Scientific). Data were visualized using Graph Pad Prism (Version 5). Results are expressed as mean±standard error of the mean (SEM). Statistical analysis was made using a non-parametric one-way analysis of variance (ANOVA) followed by a Dunnett's multiple comparison. Significance was accepted when p<0.01.

HbS [2] = biological target: T1, HbS (Homo sapiens, UniProt P68871+P69905, E7V); assay: 'R'-'T' assay (conversion of oxy HbS to deoxy HbS under deoxygenating conditions); format: biochemical; details: 50% inhibition of HbS 'R'-'T' conversion; 3 uM HbS, <1% O2
T1 construct: HbS was obtained from the blood of homozygous S/S patients; from tissue; host or cells: red blood cells of homozygous S/S patients
How it was run: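 Oxy HbS diluted to 3 µM in 100 mM potassium phosphate pH 7.4, incubated 1 h at room temperature with compound, then held under <1% O2 for 2 h. Conversion followed by background-corrected 415/430 nm absorbance ratio at 0, 90 and 120 min; percent effect normalized to tucaresol, IC50 from concentration series.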

HbS [3] = biological target: T1, HbS; assay: HbS polymerization assay (delay time); format: biochemical; details: 0.15 mM HbS, n=3, vs DMSO; for Increase in DT for 25% HbS Occ: 0.075 mM compound
From the text: This assay is used to determine the degree of inhibition of polymerization of HbS by compounds of the invention at varying degrees of HbS occupancy. The method used for the assay was adapted from that described in He and Russell (He, Z. and J. E. Russell, “A high-Throughput Microplate Method for Assessing Aggregation of Deoxygenated Hemoglobin S Heterotetramers in Vitro”, Anal Biochem 306(2): 349-352 (2002)).
Purified HbS was exchanged into 1.25 M potassium phosphate, pH=7.4 and concentrated to 1.1 mM. The hemoglobin concentration was fixed at 0.15 mM, and the HbS was diluted to the appropriate concentration using 1.25 M potassium phosphate, pH=7.4. The compound of the invention was added to 0.15 mM HbS in the following concentrations: […], 0.075 mM (25%) and 0.15 mM (50%). As these compounds are ditopic binders, the concentration was doubled to calculate the % coverage, ie. 0.15*0.5=0.075*2=0.15. DMSO concentrations were matched for all compound concentrations, as well as no-compound control, and HbA. Following incubation, 33.5 μL of HbS solution was added to each well of a Costar 96-well half area plate. To induce deoxygenation, 16.5 μL of 1 M sodium dithionite, prepared in 1.25 M potassium phosphate, was added to each well for a final assay concentration of 330 mM, and mixed thoroughly. Fifty μL of mineral oil was overlaid over the solution in each well to prevent reoxygenation, and the plate was placed at 4° C. for five minutes. Following cold incubation, the plates were placed in a spectrophotometer that had been equilibrated at 37° C., to initiate the polymerization process (temperature jump). The reaction was monitored at 700 nm for 40 minutes, with data points collected every 30 seconds. Four wells were used for each condition, and the data averaged at every point for analysis. Data was analyzed using Graph Pad Prism, and the data was fit to a Boltzman sigmoidal equation, in which V50 (t1/2) was taken as the delay time. The percent change was calculated using the DMSO as the initial delay time. Error in percent change was compounded using the V50 errors generated when fit to the Boltzman sigmoidal equation.
Delay in HbS polymerization, as measured by increasing delay time as a function of % HbS occupancy (% HbS Occ), is reported in Table 5 below as the increase in delay time (DT) for 10%, 25% and 50% HbS occupancy (n=3).

[4] = Single dose study in sickle Townes mice: exposure in whole blood; format: in vivo; details: male, Townes (sickle cell disease model), mouse, SCD mice, n=3
Description: as §1, §2

[5] = single dose 30 mg/kg oral gavage
[6] = single dose 100 mg/kg oral gavage
[7] = single dose 300 mg/kg oral gavage
[8] = single dose 900 mg/kg oral gavage
[9] = single dose 10 mg/kg oral gavage
[10] = single dose 40 mg/kg oral gavage
[11] = single dose 220 mg/kg oral gavage
[12] = single dose 490 mg/kg oral gavage

IC50 (HbS [2])	Increase in DT for 25% HbS Occ (HbS [3])	concentration at 0.5 h [4, 5]	concentration at 0.5 h [4, 6]	concentration at 0.5 h [4, 7]	concentration at 0.5 h [4, 8]	Increase in DT for 10% HbS Occ (HbS [3]; 0.03 mM compound)	Increase in DT for 50% HbS Occ (HbS [3]; 0.15 mM compound)	concentration at 0.5 h [4, 9]	concentration at 0.5 h [4, 10]	concentration at 0.5 h [4, 11]	concentration at 0.5 h [4, 12]	SMILES	% Change in RBC Sickling [1, 5]	% Change in RBC Sickling [1, 6]	% Change in RBC Sickling [1, 7]	% Change in RBC Sickling [1, 8]	% Change in RBC Sickling [1, 9]	% Change in RBC Sickling [1, 10]	% Change in RBC Sickling [1, 11]	% Change in RBC Sickling [1, 12]
4.62 µM	64 ± 6%	14.7 µM	303 µM	1140 µM	1500 µM	–	–	–	–	–	–	C[C@H](Oc1cc2cc(F)cc(F)c2nc1N)c1cc(C(=O)O)ccc1-n1cccn1 [Example 21, 3-{(1S)-1-[(2-amino-6,8-difluoroquinolin-3-yl)oxy]ethyl}-4-(1H-pyrazol-1-yl)benzoic Acid]	2.03%	−0.02%	24.6%	29.0%	–	–	–	–
4.8 µM	70 ± 8%	–	–	–	–	18 ± 5%	74 ± 21%	35.8 µM	285 µM	1450 µM	2870 µM	C[C@H](Oc1cc2cc(F)ccc2nc1N)c1nc(O)ccc1-n1cccn1 [Example 58, 6-{(1S)-1-[(2-amino-6-fluoroquinolin-3-yl)oxy]ethyl}-5-(1H-pyrazol-1-yl)pyridin-2-ol]	–	–	–	–	−6.2%	4.6%	50.8%	48.3%

Reference: patent US11014908B2, “Chemical compounds” (Pfizer Inc., priority 2018, dated 2021)
